Assay results from US9499550B2 (BRISTOL-MYERS SQUIBB COMPANY, priority 2012, dated 2016).
Read-outs that look alike come from different tables or passages of the source.

Key:
[1] = tested on: HCV genotype 1a (H77 strain) replicon in HUH-7 cells; test: HCV replicon luciferase reporter assay, genotype 1a; format: cell-based; conditions: Hepatitis C virus, Huh-7, 72 h, HCV genotype 1a replicon luciferase, 3 days incubation
Method in brief: (§1)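 Replicon inhibition for both genotypes was measured as Renilla luciferase signal (EnduRen, 7.5 μM final, 2 h) after 3-day, 37° C exposure of replicon-bearing HUH-7 cells in 4% FCS DMEM, 0.5% DMSO. The 1b construct carries S1179I; the 1a H77 construct carries P1496L and S2204I. Twenty-point, 3-fold dilutions were fitted four-parametrically for EC50, and CC50 was taken from multiplexed Cell Titer-Blue.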

[2] = tested on: HCV genotype 1b (Con1) replicon in HUH-7 cells; test: HCV replicon luciferase reporter assay, genotype 1b; format: cell-based; conditions: Hepatitis C virus, Huh-7, 72 h, HCV genotype 1b replicon luciferase, 3 days incubation
Method in brief: as §1

Compound | EC50 ([1]; read-out: LE_1a (EC50, range)) [nM] | EC50 ([2]; read-out: LE_1b (EC50, range)) [nM] | EC50 ([1]; read-out: LE_1a (EC50)) [nM] | EC50 ([2]; read-out: LE_1b (EC50)) [nM]
[2H]C([2H])([2H])C(C)(OC(=O)N[C@@H]1C(=O)N2C[C@H](Oc3nccc4c5c(ccc34)N(C)CCO5)C[C@H]2C(=O)N[C@]2(C(=O)NS(=O)(=O)C3CC3)C[C@H]2/C=C\CC[C@@H](C)C[C@H]1C)C([2H])([2H])[2H] [Compound 5286, 1,1,1,3,3,3-hexadeutero-2-methylpropan-2-yl((2R,6S,7R,9R,13aS,14aR,16aS,Z)-14a-((cyclopropylsulfonyl)carbamoyl)-7,9-dimethyl-2-((4-methyl-3,4-dihydro-2H-[1,4]oxazino[2,3-f]isoquinolin-7-yl)oxy)-5,16-dioxo-1,2,3,5,6,7,8,9,10,11,13a,14,14a,15,16,16a-hexadecahydrocyclopropa[e]pyrrolo[1,2-a][1,4]diazacyclopentadecin-6-yl)carbamate] | < 5.46 | < 5.46 |  | 
[2H]C([2H])([2H])C(OC(=O)N[C@@H]1C(=O)N2C[C@H](Oc3nccc4c5c(ccc34)N(C)CCO5)C[C@H]2C(=O)N[C@]2(C(=O)NS(=O)(=O)C3CC3)C[C@H]2/C=C\CC[C@H](C)C[C@H]1C)(C([2H])([2H])[2H])C([2H])([2H])[2H] [Compound 5287, 1,1,1,3,3,3-hexadeutero-2-(trideuteromethyl)propan-2-yl((2R,6S,7R,9S,13aS,14aR,16aS,Z)-14a-((cyclopropylsulfonyl)carbamoyl)-7,9-dimethyl-2-((4-methyl-3,4-dihydro-2H-[1,4]oxazino[2,3-f]isoquinolin-7-yl)oxy)-5,16-dioxo-1,2,3,5,6,7,8,9,10,11,13a,14,14a,15,16,16a-hexadecahydrocyclopropa[e]pyrrolo[1,2-a][1,4]diazacyclopentadecin-6-yl)carbamate] | < 5.46 | < 5.46 |  | 
[2H]C([2H])([2H])C(OC(=O)N[C@@H]1C(=O)N2C[C@H](Oc3nccc4c5c(ccc34)N(C)CCO5)C[C@H]2C(=O)N[C@]2(C(=O)NS(=O)(=O)C3CC3)C[C@H]2/C=C\CC[C@@H](C)C[C@H]1C)(C([2H])([2H])[2H])C([2H])([2H])[2H] [Compound 5288, 1,1,1,3,3,3-hexadeutero-2-(trideuteromethyl)propan-2-yl((2R,6S,7R,9R,13aS,14aR,16aS,Z)-14a-((cyclopropylsulfonyl)carbamoyl)-7,9-dimethyl-2-((4-methyl-3,4-dihydro-2H-[1,4]oxazino[2,3-f]isoquinolin-7-yl)oxy)-5,16-dioxo-1,2,3,5,6,7,8,9,10,11,13a,14,14a,15,16,16a-hexadecahydrocyclopropa[e]pyrrolo[1,2-a][1,4]diazacyclopentadecin-6-yl)carbamate] | < 5.46 | < 5.46 |  | 
C[C@H]1CC/C=C\[C@@H]2C[C@@]2(C(=O)NS(=O)(=O)C2CC2)NC(=O)[C@@H]2C[C@@H](Oc3nccc4c5c(ccc34)N(C)CCO5)CN2C(=O)[C@@H](NC(=O)c2ccc(N(C)C)cc2)[C@H](C)C1 [Compound 5289, (2R,6S,7R,9S,13aS,14aR,16aS,Z)—N-(cyclopropylsulfonyl)-6-(4-(dimethylamino)benzamido)-7,9-dimethyl-2-((4-methyl-3,4-dihydro-2H-[1,4]oxazino[2,3-f]isoquinolin-7-yl)oxy)-5,16-dioxo-1,2,3,5,6,7,8,9,10,11,13a,14,14a,15,16,16a-hexadecahydrocyclopropa[e]pyrrolo[1,2-a][1,4]diazacyclopentadecine-14a-carboxamide] | 4.82 to 103 | < 5.46 |  | 
C[C@@H]1CC/C=C\[C@@H]2C[C@@]2(C(=O)NS(=O)(=O)C2CC2)NC(=O)[C@@H]2C[C@@H](Oc3nccc4c5c(ccc34)N(C)CCO5)CN2C(=O)[C@@H](NC(=O)c2ccc(N(C)C)cc2)[C@H](C)C1 [Compound 5290, (2R,6S,7R,9R,13aS,14aR,16aS,Z)—N-(cyclopropylsulfonyl)-6-(4-(dimethylamino)benzamido)-7,9-dimethyl-2-((4-methyl-3,4-dihydro-2H-[1,4]oxazino[2,3-f]isoquinolin-7-yl)oxy)-5,16-dioxo-1,2,3,5,6,7,8,9,10,11,13a,14,14a,15,16,16a-hexadecahydrocyclopropa[e]pyrrolo[1,2-a][1,4]diazacyclopentadecine-14a-carboxamide] | < 5.46 | < 5.46 | 1.25 | 0.64
C[C@H]1CC/C=C\[C@@H]2C[C@@]2(C(=O)NS(=O)(=O)C2CC2)NC(=O)[C@@H]2C[C@@H](Oc3nccc4c5c(ccc34)N(C)CCO5)CN2C(=O)[C@@H](NC(=O)O[C@@H]2C[C@@H]3C[C@@H]3C2)[C@H](C)C1 [Compound 5291, (1R,3r,5 S)-bicyclo[3.1.0]hexan-3-yl((2R,6S,7R,9S,13aS,14aR,16aS,Z)-14a-((cyclopropylsulfonyl)carbamoyl)-7,9-dimethyl-2-((4-methyl-3,4-dihydro-2H-[1,4]oxazino[2,3-f]isoquinolin-7-yl)oxy)-5,16-dioxo-1,2,3,5,6,7,8,9,10,11,13a,14,14a,15,16,16a-hexadecahydrocyclopropa[e]pyrrolo[1,2-a][1,4]diazacyclopentadecin-6-yl)carbamate] | < 5.46 | < 5.46 |  | 
C[C@@H]1CC/C=C\[C@@H]2C[C@@]2(C(=O)NS(=O)(=O)C2CC2)NC(=O)[C@@H]2C[C@@H](Oc3nccc4c5c(ccc34)N(C)CCO5)CN2C(=O)[C@@H](NC(=O)O[C@@H]2C[C@@H]3C[C@@H]3C2)[C@H](C)C1 [Compound 5292, (1R,3r,5S)-bicyclo[3.1.0]hexan-3-yl((2R,6S,7R,9R,13aS,14aR,16aS,Z)-14a-((cyclopropylsulfonyl)carbamoyl)-7,9-dimethyl-2-((4-methyl-3,4-dihydro-2H-[1,4]oxazino[2,3-f]isoquinolin-7-yl)oxy)-5,16-dioxo-1,2,3,5,6,7,8,9,10,11,13a,14,14a,15,16,16a-hexadecahydrocyclopropa[e]pyrrolo[1,2-a][1,4]diazacyclopentadecin-6-yl)carbamate] | < 5.46 | < 5.46 |  | 
C[C@H]1CC/C=C\[C@@H]2C[C@@]2(C(=O)NS(=O)(=O)C2(C)CC2)NC(=O)[C@@H]2C[C@@H](Oc3nccc4c5c(ccc34)N(C)CCO5)CN2C(=O)[C@@H](NC(=O)OC(C)(C)C)[C@H](C)C1 [Compound 5293, tert-butyl ((2R,6S,7R,9S,13aS,14aR,16aS,Z)-7,9-dimethyl-2-((4-methyl-3,4-dihydro-2H-[1,4]oxazino[2,3-f]isoquinolin-7-yl)oxy)-14a-(((1-methylcyclopropyl)sulfonyl)carbamoyl)-5,16-dioxo-1,2,3,5,6,7,8,9,10,11,13a,14,14a,15,16,16a-hexadecahydrocyclopropa[e]pyrrolo[1,2-a][1,4]diazacyclopentadecin-6-yl)carbamate] | 4.82 to 103 | < 5.46 |  | 
C[C@@H]1CC/C=C\[C@@H]2C[C@@]2(C(=O)NS(=O)(=O)C2(C)CC2)NC(=O)[C@@H]2C[C@@H](Oc3nccc4c5c(ccc34)N(C)CCO5)CN2C(=O)[C@@H](NC(=O)OC(C)(C)C)[C@H](C)C1 [Compound 5294, tert-butyl ((2R,6S,7R,9R,13aS,14aR,16aS,Z)-7,9-dimethyl-2-((4-methyl-3,4-dihydro-2H-[1,4]oxazino[2,3-f]isoquinolin-7-yl)oxy)-14a-(((1-methylcyclopropyl)sulfonyl)carbamoyl)-5,16-dioxo-1,2,3,5,6,7,8,9,10,11,13a,14,14a,15,16,16a-hexadecahydrocyclopropa[e]pyrrolo[1,2-a][1,4]diazacyclopentadecin-6-yl)carbamate] | < 5.46 | < 5.46 |  | 
C[C@H]1CC/C=C\[C@@H]2C[C@@]2(C(=O)NS(=O)(=O)C2(C)CC2)NC(=O)[C@@H]2C[C@@H](Oc3nccc4c5c(ccc34)N(C)CCO5)CN2C(=O)[C@@H](NC(=O)OC(C)(C)C(F)(F)F)[C@H](C)C1 [Compound 5295, 1,1,1-trifluoro-2-methylpropan-2-yl((2R,6S,7R,9S,13aS,14aR,16aS,Z)-7,9-dimethyl-2-((4-methyl-3,4-dihydro-2H-[1,4]oxazino[2,3-f]isoquinolin-7-yl)oxy)-14a-(((1-methylcyclopropyl)sulfonyl)carbamoyl)-5,16-dioxo-1,2,3,5,6,7,8,9,10,11,13a,14,14a,15,16,16a-hexadecahydrocyclopropa[e]pyrrolo[1,2-a][1,4]diazacyclopentadecin-6-yl)carbamate] | 4.82 to 103 | < 5.46 |  | 
C[C@@H]1CC/C=C\[C@@H]2C[C@@]2(C(=O)NS(=O)(=O)C2(C)CC2)NC(=O)[C@@H]2C[C@@H](Oc3nccc4c5c(ccc34)N(C)CCO5)CN2C(=O)[C@@H](NC(=O)OC(C)(C)C(F)(F)F)[C@H](C)C1 [Compound 5296, 1,1,1-trifluoro-2-methylpropan-2-yl((2R,6S,7R,9R,13aS,14aR,16aS,Z)-7,9-dimethyl-2-((4-methyl-3,4-dihydro-2H-[1,4]oxazino[2,3-f]isoquinolin-7-yl)oxy)-14a-(((1-methylcyclopropyl)sulfonyl)carbamoyl)-5,16-dioxo-1,2,3,5,6,7,8,9,10,11,13a,14,14a,15,16,16a-hexadecahydrocyclopropa[e]pyrrolo[1,2-a][1,4]diazacyclopentadecin-6-yl)carbamate] | < 5.46 | < 5.46 |  | 
